According to PubChem BioAssay AID1963864 (Molecular Pharmacology Branch, DTP, NCI, 2024):

Test system: KRAS PDC multicell spheroid viability
Experiment: Anticancer human tumor 521955-158-R6-J3-PDC patient-derived pancreatic carcinoma cell line growth inhibition [KRAS2]
Conditions: for IC50: curve of first compound; for viability, T/C: stronger effect = lower value
Description: Multicellular complex tumor spheroid response to RAS pathway inhibitors in combination with a targeted agents in patient-derived cell lines with oncogenic KRAS variants from multiple cancer types
A high-throughput screen of multi-cell type tumor spheroids was designed to identify active combinations of targeted small molecules and KRAS pathway inhibitors. Complex spheroids include a stromal component modeled by human endothelial cells (HUVEC) and fibroblasts modeled by human mesenchymal stem cells (MSCs). The concentration ranges selected for each drug and investigational agent were based upon clinically achievable concentrations if the clinical Cmax of the agent was known.
Compounds. The drugs and investigational agents: BI-3406 (NSC825286), BAY-293 (NSC824723), batoprotafib (TNO155; NSC825523), sotorasib (AMG 510; NSC818433), MRTX1257 (NSC819558), elimusertib (BAY 1895344; NSC800525), molibresib (GSK525762; NSC774829), temuterkib (LY3214996; NSC803410), venetoclax (NSC766270), alisertib (NSC759677), olaparib (NSC753686), talazoparib (NSC767125), erdafitinib (NSC781556), ipatasertib (NSC767898), cabozantinib (NSC761068), nintedanib (NSC756659), abemaciclib (NSC768073), docetaxel (NSC628503), trametinib (NSC758246), and sapanisertib (NSC764658) were obtained from the National Cancer Institute (NCI) Developmental Therapeutics Program Chemical Repository. The FDA-approved anticancer drug set is available from the Developmental Therapeutics Program. […] The stock solutions were prepared in dimethyl sulfoxide (DMSO, Sigma-Aldrich, St. Louis, MO, cat. D2650) at 800-fold the tested concentration and stored at -70 degrees C prior to their use. All drugs and investigational agents were tested over a range starting from a high concentration at or near the clinical Cmax and decreasing in half-log increments. If the clinical Cmax for an agent had not been determined, the highest concentration tested was 10 microM.
Cell Culture. All cells were maintained in an incubator at 37 degrees C and 5% CO2 with 95% humidity. The PDC lines were cultured according to standard operating procedures established by the NCI PDMR (https://pdmr.cancer.gov/sops/default.htm). Briefly, all PDCs were thawed and cultured in Matrigel-coated flasks prepared with a working solution of 1X Ham's F-12 nutrient mix, without supplementation (Invitrogen, Waltham, MA, cat. 11765054), 100 U/mL penicillin-streptomycin (Invitrogen, cat. 15140122), and 2.5% Matrigel (Corning Inc., Corning, NY, cat. 354248) for the first three passages. All PDCs were cultured in complete DMEM/F-12 media containing advanced DMEM/F-12 (Invitrogen, cat. 12634028), 4.9% defined fetal bovine serum, heat inactivated (HyClone Laboratories Inc., Logan, UT, cat. SH30070.03HI), 389 ng/mL hydrocortisone (Sigma-Aldrich, cat. H4001), 9.7 ng/mL human EGF recombinant protein (Invitrogen, cat. PHG0313), 23.4 microg/mL adenine (Sigma-Aldrich, cat. A2786), 97.3 U/mL penicillin-streptomycin (Invitrogen, cat. 15140122), 1.9 mM L-glutamine (Invitrogen, cat. 25030081), and 9.7 microM Y-27632 dihydrochloride (Tocris Bioscience, Bristol, United Kingdom, cat. 1254). The PDCs were cultured in complete DMEM/F12 media without 9.7 microM Y-27632 dihydrochloride for at least two passages prior to the screen. The established cell line HOP-62 was cultured in RPMI 1640 medium, HEPES (Invitrogen, cat. 22400105) with 10% defined fetal bovine serum (HyClone Laboratories Inc., cat. SH30070.03) and 2 mM L-glutamine (Invitrogen, cat. 25030081). The pooled donor HUVEC were cultured in endothelial cell growth medium 2 (PromoCell, Heidelberg, Germany, cat. C-22011) and the hMSC were cultured in mesenchymal stem cell growth medium 2 (PromoCell, cat. C-28009). For all experiments, HUVEC and hMSC were used at passages </=5, while the malignant cell lines were used at passages </=15. […]

[1] = second compound 0.1 µM, first compound 0.0316 µM
[2] = second compound 0.1 µM, first compound 0.1 µM
[3] = second compound 0.316 µM, first compound 0.0316 µM
[4] = second compound 0.316 µM, first compound 0.1 µM
[5] = second compound 1 µM, first compound 0.0316 µM
[6] = second compound 1 µM, first compound 0.1 µM
[7] = second compound 3.16 µM, first compound 0.0316 µM
[8] = second compound 3.16 µM, first compound 0.1 µM
[9] = second compound 10 µM, first compound 0.0316 µM
[10] = second compound 10 µM, first compound 0.1 µM
[11] = second compound 0.1 µM, first compound 0.316 µM
[12] = second compound 0.1 µM, first compound 1 µM
[13] = second compound 0.1 µM, first compound 3.16 µM
[14] = second compound 0.1 µM, first compound 10 µM
[15] = second compound 0.316 µM, first compound 0.316 µM
[16] = second compound 0.316 µM, first compound 1 µM
[17] = second compound 0.316 µM, first compound 3.16 µM
[18] = second compound 0.316 µM, first compound 10 µM
[19] = second compound 1 µM, first compound 0.316 µM
[20] = second compound 1 µM, first compound 1 µM
[21] = second compound 1 µM, first compound 3.16 µM
[22] = second compound 1 µM, first compound 10 µM
[23] = second compound 3.16 µM, first compound 0.316 µM
[24] = second compound 3.16 µM, first compound 1 µM
[25] = second compound 3.16 µM, first compound 3.16 µM
[26] = second compound 3.16 µM, first compound 10 µM
[27] = second compound 10 µM, first compound 0.316 µM
[28] = second compound 10 µM, first compound 1 µM
[29] = second compound 10 µM, first compound 3.16 µM
[30] = second compound 10 µM, first compound 10 µM
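Note: drug exposure lasted seven days.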
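Throughout, for viability, T/C: 100% = DMSO vehicle wells and lower means fewer viable cells.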

Row | Structure (SMILES) | IC50 (second compound 0.1 µM) | IC50 (second compound 0.316 µM) | IC50 (second compound 1 µM) | IC50 (second compound 3.16 µM) | IC50 (second compound 10 µM) | viability, T/C [1] | viability, T/C [2] | viability, T/C [3] | viability, T/C [4] | viability, T/C [5] | viability, T/C [6] | viability, T/C [7] | viability, T/C [8] | viability, T/C [9] | viability, T/C [10] | viability, T/C [11] | viability, T/C [12] | viability, T/C [13] | viability, T/C [14] | viability, T/C [15] | further results
1 | CC(C)n1nc(-c2ccc3oc(N)nc3c2)c2c(N)ncnc21 + C=CC(=O)N1CCN(c2nc(=O)n(-c3c(C)ccnc3C(C)C)c3nc(-c4c(O)cccc4F)c(F)cc23)C(C)C1 | > 0.1 µM | > 0.1 µM | > 0.1 µM | > 0.1 µM | 0.0848 µM | 62.5% | 55.4% | 66.9% | 53.3% | 67.4% | 53.5% | 66.7% | 56.4% | 59.8% | 47.5% |  |  |  |  |  | viability, T/C (second compound 0.1 µM, first compound 0.000316 µM): 96.2%; viability, T/C (second compound 0.1 µM, first compound 0.001 µM): 90.9%; viability, T/C (second compound 0.1 µM, first compound 0.00316 µM): 75.6%; viability, T/C (second compound 0.1 µM, first compound 0.01 µM): 67.9%; viability, T/C (second compound 0.316 µM, first compound 0.000316 µM): 91.7%; viability, T/C (second compound 0.316 µM, first compound 0.001 µM): 97.7%; viability, T/C (second compound 0.316 µM, first compound 0.00316 µM): 92.8%; viability, T/C (second compound 0.316 µM, first compound 0.01 µM): 70.8%; viability, T/C (second compound 1 µM, first compound 0.000316 µM): 97.8%; viability, T/C (second compound 1 µM, first compound 0.001 µM): 90.6%; viability, T/C (second compound 1 µM, first compound 0.00316 µM): 77.3%; viability, T/C (second compound 1 µM, first compound 0.01 µM): 71.9%; viability, T/C (second compound 3.16 µM, first compound 0.000316 µM): 93%; viability, T/C (second compound 3.16 µM, first compound 0.001 µM): 93%; viability, T/C (second compound 3.16 µM, first compound 0.00316 µM): 81.4%; viability, T/C (second compound 3.16 µM, first compound 0.01 µM): 70.2%; viability, T/C (second compound 10 µM, first compound 0.000316 µM): 99%; viability, T/C (second compound 10 µM, first compound 0.001 µM): 89.9%; viability, T/C (second compound 10 µM, first compound 0.00316 µM): 74.6%; viability, T/C (second compound 10 µM, first compound 0.01 µM): 77.2%
2 | CC1(C)CCC(CN2CCN(c3ccc(C(=O)NS(=O)(=O)c4ccc(NCC5CCOCC5)c([N+](=O)[O-])c4)c(Oc4cnc5[nH]ccc5c4)c3)CC2)=C(c2ccc(Cl)cc2)C1 + C=CC(=O)N1CCN(c2nc(=O)n(-c3c(C)ccnc3C(C)C)c3nc(-c4c(O)cccc4F)c(F)cc23)C(C)C1 | 5.94 µM | 7.34 µM | 4.83 µM | 6.49 µM | 2.96 µM | 89.3% | 98.8% | 113% | 112% | 111% | 104% | 91.9% | 93.5% | 89.2% | 104% | 97.1% | 93.2% | 72.2% | 31.6% | 101% | viability, T/C [16]: 102%; viability, T/C [17]: 77.5%; viability, T/C [18]: 39.5%; viability, T/C [19]: 106%; viability, T/C [20]: 95.8%; viability, T/C [21]: 65.4%; viability, T/C [22]: 23.4%; viability, T/C [23]: 95.2%; viability, T/C [24]: 92.1%; viability, T/C [25]: 67.2%; viability, T/C [26]: 39.6%; viability, T/C [27]: 88.7%; viability, T/C [28]: 73.5%; viability, T/C [29]: 49.8%; viability, T/C [30]: 25.7%
3 | COc1cc2nccc(Oc3ccc(NC(=O)C4(C(=O)Nc5ccc(F)cc5)CC4)cc3)c2cc1OC + C=CC(=O)N1CCN(c2nc(=O)n(-c3c(C)ccnc3C(C)C)c3nc(-c4c(O)cccc4F)c(F)cc23)C(C)C1 | > 10 µM | > 10 µM | > 10 µM | > 10 µM | > 10 µM | 91.9% | 96.8% | 95.3% | 91.3% | 89.8% | 106% | 85.5% | 82.9% | 64.9% | 66.2% | 96.7% | 98.1% | 119% | 111% | 102% | viability, T/C [16]: 99.2%; viability, T/C [17]: 115%; viability, T/C [18]: 122%; viability, T/C [19]: 96.9%; viability, T/C [20]: 104%; viability, T/C [21]: 119%; viability, T/C [22]: 120%; viability, T/C [23]: 87.4%; viability, T/C [24]: 85%; viability, T/C [25]: 99.1%; viability, T/C [26]: 90.8%; viability, T/C [27]: 52.2%; viability, T/C [28]: 64.8%; viability, T/C [29]: 53%; viability, T/C [30]: 69.9%
